Test results published in patent US20020170078A1, “Calcineurin-related transgenic mammals, compositions and methods” (priority 2001, published 2002).

Tested on: Schaffer collateral pathway to area CA1 of hippocampal slices
Assay: 1-train (100 Hz) LTP, field potential recordings in hippocampal slices
Assay type: cell-based, mouse

| SMILES | 1-train LTP, % baseline 30 min after tetanus | effect on 1-train LTP (control slices, 30 min pretreatment) | effect on the increased potentiation (enhanced 1-train LTP) (mutant slices) | effect on the enhanced LTP (100 uM, at least 20 min pretreatment, mutant slices) |
| --- | --- | --- | --- | --- |
| CCCCCCOC(=O)[C@]1(O)C[C@@H]2O[C@@]1(C)n1c3ccccc3c3c4c(c5c6ccccc6n2c5c31)C(=O)NC4 [KT5720] | 134±6 % baseline | no effect | suppressed |  |
| NC(CCCP(=O)(O)O)C(=O)O (racemic) [DL-AP5] |  |  |  | abolished |
